Laboratory results: publication PMC8305076, “Comprehensive Evaluation of Biological Effects of Pentathiepins on Various Human Cancer Cell Lines and Insights into Their Mode of Action” (International Journal of Molecular Sciences, 2021)

Tests used:
Format in all cases: cell-based, human
[1] = system: YAPC; assay: cell cycle analysis (PI staining); conditions: IC90, 24 and 48 h (Figure 19c)
Procedure: The potent cytotoxicity and the potential to inhibit the proliferation of cancer cells accompanied by DNA damage effects raised the question as to whether cell cycle progression might be affected as a result of treatment with pentathiepins.
Cells were harvested by trypsinization, collected in 1.5 mL tubes, and washed twice with PBS by centrifuging for 5 min at 500× g and discarding the supernatant after every step. For fixation, 500 µL of ice-cold ethanol (70%) was added dropwise under vortexing with a subsequent incubation on ice for 30 min. Then, the cells were centrifuged for 10 min at 4000 rpm and 4 °C, the supernatant was removed, and the cells were resuspended in 500 µL of PBS containing 25 µg/mL of PI and 100 µg/mL of RNase. The staining solution was incubated for 30 min, and the cell suspension was measured at λEx/Em = 488/655–730 nm using a MACSquant Analyzer 10 (Miltenyi Biotec, Teterow, Germany).

[2] = system: DanG; assay: DCFDA flow cytometric ROS assay, acute; conditions: 25 µM, 15 min
Procedure: (§1) According to the hypothesized mechanism of action (see Figure 3), pentathiepins can create oxidative stress via generation of reactive sulfur precursors. We have previously reported that a representative pentathiepin can increase the intracellular levels of ROS in two cancer cell lines. This effect was thus further evaluated with the new compounds in seven cell lines (Figure 8). The cells were incubated for 15 min with 25.0 µM pentathiepin and subsequently analyzed by using the intracellular ROS sensor 2′,7′-dichlorodihydrofluorescein diacetate (DCFDA) by flow cytometry.
(§2) In order to quantify intracellular ROS, we performed a flow cytometric assay based on the ROS-sensor 2′,7′-dichlorofluorescein diacetate (DCFDA). For acute effects of pentathiepins on intracellular ROS levels, the cells were stained with DCFDA first and subsequently incubated with 25 µM of compound for 10 min. […] Per condition, 250,000 cells were seeded in 2 mL of medium per well of a 6-well plate and allowed to adhere overnight. For measurement of acute ROS, the cells were stained with 1 mL of a 20 µM DCFDA-PBS solution for 30 min under standard incubation conditions. Afterwards, the solution was discarded, and the monolayer washed twice with 1 mL of PBS before 3 mL of medium containing 25 µM of pentathiepin was added for 10 min at 37 °C. After removing the solution and washing again with PBS, the cells were detached by using 0.5 mL of a diluted trypsin/EDTA-PBS solution (25%) and harvested with 1 mL of culture medium by carefully rinsing the wells. The cell suspension was transferred to 1.5 mL tubes, centrifuged for 5 min at 500× g, and washed with 1 mL of PBS. After removing the supernatant, each pellet was resuspended in 0.5 mL of PBS for measurement via the MACSquant Analyzer 10 at λEx/Em = 488/530 nm. Relative ROS levels resulting from treatment with pentathiepin were calculated by relating the fluorescence intensity of treated samples to the negative control. For the experiments covering periods of 24 and 48 h, the cells were incubated with the compounds first and stained with DCFDA afterwards. To assess the influence of additional GSH, we included 3 or 30 µM GSH to the medium containing 25 µM of pentathiepin, and the protocol was followed as described.

[3] = system: PATU-8902; assay: DCFDA flow cytometric ROS assay, acute; conditions: 25 µM, 15 min
Procedure: as §1, §2

[4] = system: caspase-3 and -7 in HAP-1; assay: luminescent caspase activity assay; conditions: pentathiepins IC90, doxorubicin 0.5 µM, 24 h
From the text: To further corroborate this mode of cell death, we performed a luminescent caspase assay by measuring caspase-3 (cas-3) and caspase-7 (cas-7) activities (Figure 16). Both are executioner caspases that are present as zymogens (35 kDa) and become active after being cleaved (fragment sizes 17 and 19 kDa) by initiator caspases. Activated cas-3 and -7 in turn have several other substrates, including PARP1. In this assay, a precursor with a caspase-specific target sequence was converted into its luminescent form by active caspase-3 or -7, thereby emitting light that can be quantified.
To study the activation of the effector caspases -3 and -7, we performed a luminescence-based assay according to the manufacturer’s instructions (Caspase-Glo, Promega, Walldorf, Germany). Briefly, 5000 cells were seeded in 0.1 mL per well of a 96-well plate and allowed to adhere overnight. […] Afterwards, the standard protocol was followed, including a 30 min incubation time before measurement of luminescent signals by using the Spectramax i3x (Molecular Devices, Sunnyvale, CA, USA). After subtraction of the background luminescence the positive control and treatment conditions were related to the negative control.

[5] = system: PARP1 in HAP-1.KO.GPx1; assay: Western blot of cleaved PARP1; conditions: pentathiepins IC90, doxorubicin 0.5 µM, 24 h
Procedure: (§3) In addition to general flow cytometric and microscopic analyses, Western blotting was performed to detect the apoptosis-relevant protein PARP1 (poly(ADP-ribose) polymerase 1) and its cleavage fragment (Figure 17 and Figures S29–S34). Full-length PARP1 (116 kDa) is involved in DNA repair, and a cleavage by caspases (fragment sizes 24 and 89 kDa) caused by caspase-3 and -7 is a hallmark of late apoptosis.
(§4) All detected specific bands were normalized to the total protein load per lane by the TGX stain-free gel system from Bio-Rad.
(§5) All Western blot analyses were performed with reagents, material, and devices purchased from Bio-Rad (Feldkirchen, Germany) if not stated otherwise. To obtain protein lysates, we seeded cells and treated them as described for the other methods. […] Cells were harvested by trypsinization and centrifugation for 5 min at 500× g. After a washing step with PBS, the cell pellet was resuspended in lysis buffer (Tris 50 mM (pH 7.4), 100 mM NaCl, 100 mM NaF, 5 mM EDTA, 0.2 mM Na3VO4, 0.1% Triton-X, and 1% protease inhibitor cocktail added immediately before use). Lysis was supported by incubating the samples for 10 min in an ultrasonic bath before centrifuging for 10 min at 18,000 × g and 4 °C. Protein quantification was performed via the Bradford method using ROTI®nanoquant reagent (Carl Roth GmbH, Karlsruhe, Germany) and bovine serum albumin as calibration standard. For electrophoretic separation, 15–40 µg of protein was loaded per well of a polyacrylamide gel (Mini- or Midi-Protean® TGX stain-free gel, Bio-Rad, Feldkirchen, Germany), and subsequent blotting was performed with Trans-Blot®Turbo™TransferPack Mini or Midi PVDF membranes from Bio-Rad (Feldkirchen, Germany). The membranes were blocked with a 10% non-fat milk powder solution in Tris-buffered saline (TBS; 2.42 g/L Tris, 8.48 g/L NaCl in water) plus 0.5% Tween-20 (TBST) for 1 h at RT. Incubation with primary antibodies took place over night at 4 °C in a 1:1000 dilution in TBST containing BSA (1%). The secondary antibodies conjugated to horse-radish peroxidase were diluted 1:10,000 in TBST and 1% BSA, and incubated for 4 h at RT. A detection step followed, applying Clarity™Western ECL substrate with subsequent imaging via the INTAS Advanced Fluorescence Imager. Between all incubation steps, the blots were washed three times for 10 min with TBST. The bands were quantified with the ImageLab software and normalized using the total protein quantification of the TGX stain-free gel system from Bio-Rad.

[6] = system: PARP1 in HAP-1; assay: Western blot of cleaved PARP1; conditions: pentathiepins IC90, doxorubicin 0.5 µM, 24 h
Procedure: as §3, §4, §5

Compound	increase of G0/G1-phase cells [1]	intracellular ROS levels [2]	intracellular ROS levels [3]	caspase-3 and -7 activity vs solvent control [4]	cleaved PARP1 [5]	cleaved PARP1 [6]
CCOc1c2c(c3cnc4[nH]c(-c5ccc(OC)cc5)cc4n13)SSSSS2 [Compound 1, 11-Ethoxy-2-(4-methoxyphenyl)-3H-[1,2,3,4,5]pentathiepino[6′,7′:3,4]pyrrolo[1,2-a]pyrrolo[2,3-e]pyrazine]	up to 18%	–	–	–	–	–
CCOc1c2c(c3ccc(C(=O)N4CCCCC4)cn13)SSSSS2 [Compound 2, (6-Ethoxy-[1,2,3,4,5]pentathiepino[6,7-a]indolizin-9-yl)(piperidinyl)methanone]	–	high levels of intracellular ROS were detected	high levels of intracellular ROS were detected	statistically significant results	–	–
CCOc1c2c(c3ccc(C(=O)N4CCOCC4)cn13)SSSSS2 [Compound 3, (6-Ethoxy-[1,2,3,4,5]pentathiepino[6,7-a]indolizin-9-yl)(morpholino)methanone]	–	high levels of intracellular ROS were detected	high levels of intracellular ROS were detected	–	trends for increased levels	trends for increased levels
CCOc1c2c(c3ccc(C(=O)N(CC)CC)cn13)SSSSS2 [Compound 4, 6-Ethoxy-N,N’-diethyl-[1,2,3,4,5]pentathiepino[6,7-a]indolizine-9-carboxamide]	–	high levels of intracellular ROS were detected	high levels of intracellular ROS were detected	statistically significant results	–	–
CCOc1c2c(c3ccc(C(=O)N4CCN(C(=O)c5ccc(F)cc5)CC4)cn13)SSSSS2 [Compound 5, (6-Ethoxy-[1,2,3,4,5]pentathiepino[6,7-a]indolizin-9-yl)(4-(4-fluorobenzoyl)piperazinyl)methanone]	–	high levels of intracellular ROS were detected	high levels of intracellular ROS were detected	–	trends for increased levels	trends for increased levels
CCOc1c2c(c3ccc(C(=O)N4CCN(S(=O)(=O)c5ccc(C)cc5)CC4)cn13)SSSSS2 [Compound 6, (6-Ethoxy-[1,2,3,4,5]pentathiepino[6,7-a]indolizin-9-yl)(4-tosylpiperazinyl)methanone]	up to 18%	–	–	statistically significant results	relevant and significant quantities of cleaved PARP1	relevant and significant quantities of cleaved PARP1
